From paper PMC10610505, “Synthesis and Biological Evaluation of Some New 3-Aryl-2-thioxo-2,3-dihydroquinazolin-4(1H)-ones and 3-Aryl-2-(benzylthio)quinazolin-4(3H)-ones as Antioxidants; COX-2, LDHA, α-Glucosidase and α-Amylase Inhibitors; and Anti-Colon Carcinoma and Apoptosis-Inducing Agents” (Pharmaceuticals, 2023)

What was measured:
COX-2 = molecular target: T1, COX-2 (Homo sapiens, UniProt P35354); experiment: COX-2 inhibitory screening assay (Cayman kit); format: biochemical; conditions: for Increase in COX-2 inhibitory efficiency by duplicating the concentration: % inhibition at 0.200 mg/mL divided by % inhibition at 0.100 mg/mL; for inhibition at 100 µg/mL: at 0.100 mg/mL; for inhibition at 100 µg/mL / inhibition at 200 µg/mL: read-out: COX-2 mean % inhibition ± SD; for inhibition at 200 µg/mL: at 0.200 mg/mL
T1 construct: purchased Cayman Chemical Company 701080
T1 sequence (P35354 18-604): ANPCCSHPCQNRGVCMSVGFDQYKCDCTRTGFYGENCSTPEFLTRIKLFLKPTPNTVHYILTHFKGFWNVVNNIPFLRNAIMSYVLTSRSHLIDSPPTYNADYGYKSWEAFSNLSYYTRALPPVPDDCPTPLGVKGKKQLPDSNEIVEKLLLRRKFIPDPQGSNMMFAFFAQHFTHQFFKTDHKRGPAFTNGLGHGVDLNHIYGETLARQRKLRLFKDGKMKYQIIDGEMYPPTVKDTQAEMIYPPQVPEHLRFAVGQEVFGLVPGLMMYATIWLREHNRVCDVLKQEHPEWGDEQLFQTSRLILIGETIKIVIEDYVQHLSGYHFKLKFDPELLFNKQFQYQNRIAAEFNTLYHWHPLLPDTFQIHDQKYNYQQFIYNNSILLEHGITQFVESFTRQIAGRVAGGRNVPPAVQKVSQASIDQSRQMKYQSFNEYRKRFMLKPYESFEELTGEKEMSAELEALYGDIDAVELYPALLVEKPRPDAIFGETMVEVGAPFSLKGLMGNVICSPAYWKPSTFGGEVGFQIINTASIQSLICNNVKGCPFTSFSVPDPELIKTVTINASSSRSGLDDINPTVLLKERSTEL
Procedure, shortened: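 Human COX-2 with heme preincubated with compound 10 min at 37° C in Tris-HCl pH 8.0 with phenol and EDTA, then arachidonic acid added for 2 min at 37° C. PGF2α, formed by stannous chloride reduction, quantified by enzyme immunoassay at 410 nm; % inhibition versus untreated control.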

Bcl-2 gene = experiment: qRT-PCR expressional level of Bcl-2 gene; format: cell-based, human; conditions: 10 µg/mL, 24 h, HCT-116, vs negative control
Description: Considering these facts, enhancing apoptosis has been extensively studied as a potential drug target in cancer therapy, therefore, in this study, we investigated the effects of the most cytotoxic compounds, 3a and 3f, (at 10 µg/mL, 24 h incubation) on the expressional levels of these apoptotic regulator genes (Bax and Bcl-2) using quantitative reverse transcription–polymerase chain reactions (qRT-PCR).
Briefly, in a 25 mL flask (1 × 10^6 cells/flask), the human colon cancer cell lines (HCT-116 and LoVo) were grown for 24 h. After replacing the culture media with a medium containing 1% FBS for 24 h, the cells were treated with 10 µg/mL of each tested compound in 2 mL of fresh medium containing 1% FBS, or 0.25% DMSO, which was used as the negative control. The cells were adherent cells and they were detached using trypsin after being washed with ice-cold phosphate-buffered saline (PBS).
Primers specific for the Bax, Bcl-2 and Caspase-3 genes were designed using the primer blast (https://www.ncbi.nlm.nih.gov/tools/primer-blast/ accessed on 9 January 2023) software. The primers were used in the RT-qPCR analysis to amplify fragments of 100–200 bp in length (Table 11).
The RNeasy Mini Kit (Qiagen, Hilden, Germany) was used to extract the total RNA. The RNA purity, quality and quantity were checked using a Nanodrop 8000 spectrophotometer (Thermo Fisher Scientific, USA). […]

SMILES	Increase in COX-2 inhibitory efficiency by duplicating the concentration (COX-2) [fold]	inhibition at 100 µg/mL (COX-2) [%]	inhibition at 200 µg/mL (COX-2) [%]	IC50 (COX-2; mean ± SD of three replicates) [µM]	Expressional level of anti-apoptotic gene Bcl-2 (Bcl-2 gene) [fold]
O=c1c2cc(Cl)ccc2[nH]c(=S)n1-c1cccc(C(F)(F)F)c1 [Compound 3a, 6-Chloro-2-thioxo-3-(3-trifluoromethyl-phenyl)-2,3-dihydro-1H-quinazolin-4-one]	1.70	57 ± 2.83	97 ± 1.34	281	0.635
O=c1c2cc(Cl)ccc2[nH]c(=S)n1-c1ccc([N+](=O)[O-])cc1 [Compound 3f, 6-Chloro-3-(4-nitro-phenyl)-2-thioxo-2,3-dihydro-1H-quinazolin-4-one]	2.34	11.4 ± 0.778	26.8 ± 3.89	–	0.345
